Experimental data taken from patent publication US20070191333A1, “Antibacterial agents” (Warner Lambert Company LLC, priority 2003, published 2007).
Values after ≈ are worked out from the molar mass of the structure shown. Where two headings read alike, the source gives them in different places.

Experiments:
Type in all cases: cell-based
S. aureus UC-76 = assay: Antibacterial microtitration MIC, S. aureus UC-76; conditions: strain UC-76; for MIC: Staphylococcus aureus, UC76, Gram Positive Bacteria, read-out: Minimum Inhibitory Concentrations S. aureus UC-76
Protocol: (§1) Test A—Antibacterial Assays The compounds of the present invention were tested against an assortment of Gram-negative and Gram-positive organisms using standard microtitration techniques (Cohen et. al., Antimicrob., 1985; 28:766; Heifetz, et. al., Antimicrob., 1974; 6:124).

S. pneumo SV-1 = assay: Antibacterial microtitration MIC, S. pneumo SV-1; conditions: Gram Positive Bacteria, strain SV-1; for MIC: read-out: Minimum Inhibitory Concentrations S. pneumo SV-1
Protocol: as §1

E. faecalis MGH-2 = assay: Antibacterial microtitration MIC, E. faecalis MGH-2; conditions: strain MGH-2; for MIC: Enterococcus faecalis, MGH2, Gram Positive Bacteria, read-out: Minimum Inhibitory Concentrations E. faecalis MGH-2
Protocol: as §1

S pyogenes C203 = assay: Antibacterial microtitration MIC, S pyogenes C203; conditions: Gram Positive Bacteria, strain C203; for MIC: read-out: Minimum Inhibitory Concentrations S pyogenes C203
Protocol: as §1

H. influenzae HI-3542 = assay: Antibacterial microtitration MIC, H. influenzae HI-3542; conditions: strain HI-3542; for MIC: Haemophilus influenzae, HI3542, Gram Negative Bacteria, read-out: Minimum Inhibitory Concentrations H. influenzae HI-3542
Protocol: as §1

E. coli 2026 = assay: Antibacterial microtitration MIC, E. coli 2026; conditions: strain 2026; for MIC: read-out: Minimum Inhibitory Concentrations E. coli 2026
Protocol: as §1

M. catarrhalis BC-3531 = assay: Antibacterial microtitration MIC, M. catarrhalis BC-3531; conditions: strain BC-3531; for MIC: Moraxella catarrhalis, BC3531, Gram Negative Bacteria, read-out: Minimum Inhibitory Concentrations M. catarrhalis BC-3531; for Minimum Inhibitory Concentrations M. catarrhalis BC-3531: Gram Negative Bacteria
Protocol: as §1

[1] = Escherichia coli, Gram Negative Bacteria
[2] = Escherichia coli, 2026, Gram Negative Bacteria

SMILES	MIC (S. aureus UC-76) [µg/mL]	MIC (S. pneumo SV-1) [µg/mL]	MIC (E. faecalis MGH-2) [µg/mL]	MIC (S pyogenes C203) [µg/mL]	MIC (H. influenzae HI-3542) [µg/mL]	MIC (M. catarrhalis BC-3531) [µg/mL]	further results
COc1c(N2CC[C@@H]([C@H](C)NCCC#N)C2)c(F)cc2c(=O)[nH]c(=O)n(C3CC3)c12 (single isomer, unassigned) [drawing 418]	1 (≈ 2.41 µM)	0.25 (≈ 0.602 µM)	2 (≈ 4.81 µM)	0.5 (≈ 1.2 µM)	–	–	–
Cc1c(N2C[C@@H](CNCCC#N)[C@H](C)C2)c(F)cc2c(=O)n(N)c(=O)n(C3CC3)c12 (stereo in doubt)	–	–	–	–	2 (≈ 4.83 µM)	4 (≈ 9.65 µM)	MIC (E. coli 2026; [1]): 8 µg/mL (≈ 19.3 µM)
Cc1c(N2C[C@H](CNCCC#N)[C@@H](C)C2)c(F)cc2c(=O)n(N)c(=O)n(C3CC3)c12 (stereo in doubt)	–	–	–	–	4 (≈ 9.65 µM)	4 (≈ 9.65 µM)	MIC (E. coli 2026; [1]): 8 µg/mL (≈ 19.3 µM)
Cc1c(N2CCC(C(N)CC#N)C2)c(F)cc2c(=O)n(N)c(=O)n(C3CC3)c12 (centres unmarked) [drawing 388]	–	–	–	–	2 (≈ 5.18 µM)	0.5 (≈ 1.29 µM)	MIC (E. coli 2026; [2]): 8 µg/mL (≈ 20.7 µM)
COc1c(N2CCC(C(N)CC#N)C2)c(F)cc2c(=O)n(N)c(=O)n(C3CC3)c12 (centres unmarked) [drawing 393]	–	–	–	–	8 (≈ 19.9 µM)	16 (≈ 39.8 µM)	MIC (E. coli 2026; [2]): 64 µg/mL (≈ 159 µM)
COc1c(N2C[C@@H]3CCC(NCCC#N)[C@@H]3C2)c(F)cc2c(=O)n(N)c(=O)n(C3CC3)c12 (some centres unmarked) [drawing 398]	–	–	–	–	8 (≈ 18.1 µM)	64 (≈ 145 µM)	MIC (E. coli 2026; [1]): 64 µg/mL (≈ 145 µM)
Cc1c(N2CC[C@@H](C(NCCC#N)c3ncco3)C2)c(F)cc2c(=O)n(N)c(=O)n(C3CC3)c12 (some centres unmarked) [drawing 399]	–	–	–	–	4 (≈ 8.56 µM)	16 (≈ 34.2 µM)	MIC (E. coli 2026; [1]): 16 µg/mL (≈ 34.2 µM)
Cc1c(N2CCC(C(N)C(C)(C)C#N)C2)c(F)cc2c(=O)n(N)c(=O)n(C3CC3)c12 (centres unmarked) [drawing 402]	–	–	–	–	32 (≈ 77.2 µM)	–	MIC (E. coli 2026; [2]): 64 µg/mL (≈ 154 µM); Minimum Inhibitory Concentrations M. catarrhalis BC-3531 (M. catarrhalis BC-3531): 5.25 µg/mL
Cc1c(N2CCC(C(N)C(C)(C)C#N)C2)c(F)cc2c(=O)n(N)c(=O)n(C3CC3)c12 (centres unmarked) [drawing 403]	–	–	–	–	–	–	Minimum Inhibitory Concentrations H. influenzae HI-3542 (H. influenzae HI-3542; Gram Negative Bacteria): 32 µg/mL; Minimum Inhibitory Concentrations E. coli 2026 (E. coli 2026; Gram Negative Bacteria): 64 µg/mL; Minimum Inhibitory Concentrations M. catarrhalis BC-3531 (M. catarrhalis BC-3531): 16 µg/mL
COc1c(N2CC(CNCCC#N)C3(CC3)C2)c(F)cc2c(=O)n(N)c(=O)n(C3CC3)c12 (centres unmarked) [drawing 404]	–	–	–	–	1 (≈ 2.26 µM)	8 (≈ 18.1 µM)	MIC (E. coli 2026; [2]): 2 µg/mL (≈ 4.52 µM)
Cc1c(N2CCC(C(N)CC#N)C2)c(F)cc2c(=O)n(N)c(=O)n(C3CC3)c12 (centres unmarked) [drawing 405]	0.25 (≈ 0.647 µM)	0.125 (≈ 0.323 µM)	0.5 (≈ 1.29 µM)	0.125 (≈ 0.323 µM)	–	–	–
COc1c(N2CCC(C(N)CC#N)C2)c(F)cc2c(=O)n(N)c(=O)n(C3CC3)c12 (centres unmarked) [drawing 410]	2 (≈ 4.97 µM)	0.5 (≈ 1.24 µM)	2 (≈ 4.97 µM)	0.5 (≈ 1.24 µM)	–	–	–
COc1c(N2C[C@@H]3CCC(NCCC#N)[C@@H]3C2)c(F)cc2c(=O)n(N)c(=O)n(C3CC3)c12 (some centres unmarked) [drawing 415]	1 (≈ 2.26 µM)	0.5 (≈ 1.13 µM)	4 (≈ 9.04 µM)	1 (≈ 2.26 µM)	–	–	–
Cc1c(N2CC[C@@H](C(NCCC#N)c3ncco3)C2)c(F)cc2c(=O)n(N)c(=O)n(C3CC3)c12 (some centres unmarked) [drawing 416]	8 (≈ 17.1 µM)	8 (≈ 17.1 µM)	32 (≈ 68.4 µM)	8 (≈ 17.1 µM)	–	–	–
Cc1c(N2CCC(C(N)C(C)(C)C#N)C2)c(F)cc2c(=O)n(N)c(=O)n(C3CC3)c12 (centres unmarked) [drawing 419]	12 (≈ 29 µM)	–	32 (≈ 77.2 µM)	32 (≈ 77.2 µM)	–	–	Minimum Inhibitory Concentrations S. pneumo SV-1 (S. pneumo SV-1): 32 µg/mL
Cc1c(N2CCC(C(N)C(C)(C)C#N)C2)c(F)cc2c(=O)n(N)c(=O)n(C3CC3)c12 (centres unmarked) [drawing 420]	–	–	–	–	–	–	Minimum Inhibitory Concentrations S. aureus UC-76 (S. aureus UC-76; Gram Positive Bacteria): 8 µg/mL; Minimum Inhibitory Concentrations S. pneumo SV-1 (S. pneumo SV-1): 8 µg/mL; Minimum Inhibitory Concentrations E. faecalis MGH-2 (E. faecalis MGH-2; Gram Positive Bacteria): 16 µg/mL; Minimum Inhibitory Concentrations S pyogenes C203 (S pyogenes C203): 16 µg/mL
COc1c(N2CC(CNCCC#N)C3(CC3)C2)c(F)cc2c(=O)n(N)c(=O)n(C3CC3)c12 (centres unmarked) [drawing 421]	0.25 (≈ 0.565 µM)	0.06 (≈ 0.136 µM)	1 (≈ 2.26 µM)	0.06 (≈ 0.136 µM)	–	–	–
